Laboratory results from patent US20230027026A1, “FUSED PYRIMIDINE COMPOUNDS, COMPOSITIONS AND MEDICINAL APPLICATIONS THEREOF” (JUBILANT BIOSYS LIMITED, priority 2019, published 2023).

Key:
Format in all cases: cell-based
A431 cells = test: Cellular proliferation (Alamar Blue) assay, A431; settings: Homo sapiens, A-431; A431 cells, 72 hr, Alamar Blue; read-out: A431 IC50
Outline: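 Seventy-two-hour growth assay with 3-fold compound titration (final 10–0.0005 μM) and Alamar Blue fluorescence end point, ex 540/em 590 nm.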

[1] = target: EGFR (A767_dupASV) expressing Ba/F3 stable cell line (Homo sapiens, UniProt P00533, DUP767-769, cells depend on it); test: Cellular proliferation (Alamar Blue) assay, EGFR A767_dupASV Ba/F3; settings: EGFR A767_dupASV Ba/F3, 72 hr, read-out: A767 IC50
Outline: (§1)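 Viability is measured by Alamar Blue conversion over 3 h, read as fluorescence at 540/590 nm. Cells are treated for 72 h with compound spanning 10–0.0005 μM final in 3-fold dilutions, after overnight attachment; Ba/F3 cells go in at 15,000 per well in RPMI with 10% FBS.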

[2] = target: EGFR(D770_N771insSVD) expressing Ba/F3 stable cell line (Homo sapiens, UniProt P00533, DUP768-770, cells depend on it); test: Cellular proliferation (Alamar Blue) assay, EGFR D770_N771insSVD Ba/F3; settings: EGFR D770_N771insSVD Ba/F3, 72 hr, read-out: D770 IC50
Outline: as §1

[3] = target: HER2 (A775_G776insYVMA) expressing Ba/F3 stable cell line (Homo sapiens, UniProt P04626, DUP772-775, cells depend on it); test: Cellular proliferation (Alamar Blue) assay, HER2 YVMA Ba/F3; settings: HER2 A775_G776insYVMA Ba/F3, 72 hr, read-out: YVMA IC50
Description: Example 3: Cellular Proliferation (Alamar Blue) Assays
• 1. EGFR(D770_N771insSVD) expressing Ba/F3 stable cell line • 2. EGFR (A767_dupASV) expressing Ba/F3 stable cell line • 3. A431 cells • 4. BTER2 (A775_G776insYVMA) expressing Ba/F3 stable cell line • 5. BTER2 (WT) expressing Ba/F3 stable cell line • 6. BT-474 cells
• 1. Seed cells at 5000 for A431 and 15,000 cells for Ba/F3 in 100 μL/well in complete media (for A431: DMEM with 10% FBS and for Ba/F3 cells: RPMI with 10% FBS) in 96-well tissue culture plate. Leave outer wells without cells for background measurements. Incubate at 37 degree Celsius in 5% CO2 humidified incubator for 16-18 hours. • 2. Add 0.025 ml of 5× concentration compound dilution or DMSO control. Final compound concentration range is 10-0.0005 μM prepared in 3-fold serial dilutions. Incubate for 72 hr at 37 degree Celsius in […] humidified incubator. • 3. Add 0.0125 mL Alamar Blue™ reagent to each well with multi-channel pipette and tap gently on each side of the plate to mix. Incubate for 3 hours at 37 degree Celsius in […] humidified incubator. • 4. Read plates on fluorescence reader (Tecan Spark Control, Device: Spark, Serial #: 1801006040) at 540 nm excitation, 590 nm emission wavelength. • 5. Data analysis was performed using XLfit 5.5.0.5.

Sequence of HER2 (A775_G776insYVMA) expressing Ba/F3 stable cell line (P04626 with tags, fused parts or gaps DUP772-775): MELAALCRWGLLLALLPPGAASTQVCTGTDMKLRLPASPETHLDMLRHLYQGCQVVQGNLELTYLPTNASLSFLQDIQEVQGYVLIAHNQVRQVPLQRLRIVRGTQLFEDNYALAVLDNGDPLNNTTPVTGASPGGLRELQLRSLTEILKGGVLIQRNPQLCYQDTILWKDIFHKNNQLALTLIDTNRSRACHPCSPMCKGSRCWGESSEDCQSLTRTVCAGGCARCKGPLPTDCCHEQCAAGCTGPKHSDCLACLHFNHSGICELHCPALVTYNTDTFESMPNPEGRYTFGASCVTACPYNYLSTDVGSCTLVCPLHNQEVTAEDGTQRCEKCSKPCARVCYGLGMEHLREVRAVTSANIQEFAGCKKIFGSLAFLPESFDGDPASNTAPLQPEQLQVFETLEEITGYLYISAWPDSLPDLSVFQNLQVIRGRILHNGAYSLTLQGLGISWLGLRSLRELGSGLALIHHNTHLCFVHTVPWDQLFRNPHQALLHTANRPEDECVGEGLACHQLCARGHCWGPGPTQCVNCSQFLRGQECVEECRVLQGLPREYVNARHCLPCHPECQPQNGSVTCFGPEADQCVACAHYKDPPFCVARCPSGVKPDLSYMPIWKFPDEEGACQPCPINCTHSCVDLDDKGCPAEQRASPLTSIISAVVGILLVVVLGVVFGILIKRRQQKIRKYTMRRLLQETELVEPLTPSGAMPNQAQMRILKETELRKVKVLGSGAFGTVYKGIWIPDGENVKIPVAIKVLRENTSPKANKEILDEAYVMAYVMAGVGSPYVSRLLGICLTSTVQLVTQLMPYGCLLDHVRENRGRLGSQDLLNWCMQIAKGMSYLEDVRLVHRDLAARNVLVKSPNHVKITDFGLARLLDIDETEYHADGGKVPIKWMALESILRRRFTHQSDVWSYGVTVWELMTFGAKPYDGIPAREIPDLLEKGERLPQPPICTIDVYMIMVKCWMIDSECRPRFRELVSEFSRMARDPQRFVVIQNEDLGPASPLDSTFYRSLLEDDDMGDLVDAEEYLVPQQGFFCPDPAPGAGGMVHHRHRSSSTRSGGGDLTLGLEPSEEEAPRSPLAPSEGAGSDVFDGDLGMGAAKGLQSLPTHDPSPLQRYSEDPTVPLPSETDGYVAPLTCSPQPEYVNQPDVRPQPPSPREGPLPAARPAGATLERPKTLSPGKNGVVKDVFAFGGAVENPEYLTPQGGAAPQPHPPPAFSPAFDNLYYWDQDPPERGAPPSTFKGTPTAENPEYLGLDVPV
Sequence of EGFR(D770_N771insSVD) expressing Ba/F3 stable cell line (P00533 with tags, fused parts or gaps DUP768-770): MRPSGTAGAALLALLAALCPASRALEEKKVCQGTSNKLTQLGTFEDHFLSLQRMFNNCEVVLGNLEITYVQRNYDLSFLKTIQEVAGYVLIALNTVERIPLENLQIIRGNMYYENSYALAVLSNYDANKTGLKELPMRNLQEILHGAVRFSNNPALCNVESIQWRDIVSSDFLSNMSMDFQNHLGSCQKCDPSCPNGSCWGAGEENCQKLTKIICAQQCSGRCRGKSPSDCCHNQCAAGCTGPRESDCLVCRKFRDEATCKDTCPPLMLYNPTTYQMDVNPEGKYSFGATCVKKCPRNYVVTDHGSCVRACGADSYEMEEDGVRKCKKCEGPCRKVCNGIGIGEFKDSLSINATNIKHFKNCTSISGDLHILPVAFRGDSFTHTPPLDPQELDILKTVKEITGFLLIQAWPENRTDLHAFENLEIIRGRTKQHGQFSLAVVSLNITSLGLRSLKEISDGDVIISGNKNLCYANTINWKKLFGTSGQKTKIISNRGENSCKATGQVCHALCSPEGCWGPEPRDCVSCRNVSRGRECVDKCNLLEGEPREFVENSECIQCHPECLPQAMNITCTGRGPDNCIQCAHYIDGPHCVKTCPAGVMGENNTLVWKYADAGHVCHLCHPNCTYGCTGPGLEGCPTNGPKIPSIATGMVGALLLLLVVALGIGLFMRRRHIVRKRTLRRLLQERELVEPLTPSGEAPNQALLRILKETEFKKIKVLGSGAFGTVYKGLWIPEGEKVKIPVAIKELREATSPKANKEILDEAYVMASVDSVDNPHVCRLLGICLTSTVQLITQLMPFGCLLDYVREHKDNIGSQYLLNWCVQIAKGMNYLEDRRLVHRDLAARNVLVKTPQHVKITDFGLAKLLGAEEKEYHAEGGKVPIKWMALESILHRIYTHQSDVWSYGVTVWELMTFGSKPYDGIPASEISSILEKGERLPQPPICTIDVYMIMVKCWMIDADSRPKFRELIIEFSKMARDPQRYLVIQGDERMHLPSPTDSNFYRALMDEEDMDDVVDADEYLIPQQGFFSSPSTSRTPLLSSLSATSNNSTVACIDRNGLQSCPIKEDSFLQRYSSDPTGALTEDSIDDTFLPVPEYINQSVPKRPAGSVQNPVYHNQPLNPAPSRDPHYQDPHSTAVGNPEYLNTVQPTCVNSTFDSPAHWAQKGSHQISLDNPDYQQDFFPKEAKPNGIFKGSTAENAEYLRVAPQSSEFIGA
Sequence of EGFR (A767_dupASV) expressing Ba/F3 stable cell line (P00533 with tags, fused parts or gaps DUP767-769): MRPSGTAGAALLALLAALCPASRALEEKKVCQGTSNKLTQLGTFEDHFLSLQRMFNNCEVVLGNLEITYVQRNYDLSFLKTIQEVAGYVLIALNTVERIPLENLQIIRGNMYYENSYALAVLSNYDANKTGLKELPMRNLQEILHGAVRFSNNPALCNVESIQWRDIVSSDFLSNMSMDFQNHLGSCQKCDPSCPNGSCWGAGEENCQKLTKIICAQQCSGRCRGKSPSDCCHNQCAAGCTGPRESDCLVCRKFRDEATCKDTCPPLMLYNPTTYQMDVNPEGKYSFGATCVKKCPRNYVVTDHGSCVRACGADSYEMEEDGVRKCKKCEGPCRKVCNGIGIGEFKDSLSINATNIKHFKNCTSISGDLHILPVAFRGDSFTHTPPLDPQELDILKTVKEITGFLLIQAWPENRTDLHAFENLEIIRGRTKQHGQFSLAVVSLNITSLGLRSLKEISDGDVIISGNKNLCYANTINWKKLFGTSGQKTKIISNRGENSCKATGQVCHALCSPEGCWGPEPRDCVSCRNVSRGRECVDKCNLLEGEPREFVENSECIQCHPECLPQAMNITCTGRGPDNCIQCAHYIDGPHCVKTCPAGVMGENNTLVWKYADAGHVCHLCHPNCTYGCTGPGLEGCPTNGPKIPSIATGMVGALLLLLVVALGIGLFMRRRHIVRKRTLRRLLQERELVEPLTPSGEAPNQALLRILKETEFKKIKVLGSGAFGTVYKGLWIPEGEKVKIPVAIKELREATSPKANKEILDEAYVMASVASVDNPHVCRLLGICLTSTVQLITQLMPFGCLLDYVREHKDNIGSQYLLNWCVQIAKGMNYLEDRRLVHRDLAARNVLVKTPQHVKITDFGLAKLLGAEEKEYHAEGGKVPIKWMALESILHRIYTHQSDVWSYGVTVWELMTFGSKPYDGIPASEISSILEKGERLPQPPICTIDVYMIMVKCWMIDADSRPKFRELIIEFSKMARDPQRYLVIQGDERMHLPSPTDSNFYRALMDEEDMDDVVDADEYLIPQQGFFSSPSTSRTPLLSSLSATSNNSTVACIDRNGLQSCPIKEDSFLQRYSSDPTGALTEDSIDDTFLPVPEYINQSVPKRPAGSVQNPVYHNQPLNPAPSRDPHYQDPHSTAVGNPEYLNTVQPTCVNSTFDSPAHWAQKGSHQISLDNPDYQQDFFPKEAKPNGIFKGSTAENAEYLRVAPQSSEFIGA

Row | Structure (SMILES) | IC50 (A431 cells) | GI50 [1] | GI50 [2] | GI50 [3]
1 | COC/C=C/C(=O)Nc1cccc(N2C(=O)N(c3ccccc3)Cc3cnc(Nc4cn(C)nc4Cl)nc32)c1 [Compound 119, (E)-N-(3-(7-((3-chloro-1-methyl-1H-pyrazol-4-yl)amino)-2-oxo-3-phenyl-3,4-dihydropyrimido[4,5-d]pyrimidin-1(2H)-yl)phenyl)-4-methoxybut-2-enamide] | ≥ 10000 nM | 98 nM | 140 nM | 144 nM
2 | Cn1cc(Nc2ncc3c(n2)N(c2cccc(NC(=O)/C=C/CN4CCCCC4)c2)C(=O)N(c2ccccc2)C3)c(Cl)n1 [Compound 111, (E)-N-(3-(7-((3-chloro-1-methyl-1H-pyrazol-4-yl)amino)-2-oxo-3-phenyl-3,4-dihydropyrimido[4,5-d]pyrimidin-1(2H)-yl)phenyl)-4-(piperidin-1-yl)but-2-enamide] | ≥ 10000 nM | 39 nM | 128 nM | 64 nM
3 | C=CC(=O)Nc1cccc(N2C(=O)N(c3ccccc3)Cc3cnc(Nc4cnn(C5CCC(O)CC5)c4)nc32)c1 (stereo not drawn) [Compound 108, N-(3-(7-((1-(4-hydroxycyclohexyl)-1H-pyrazol-4-yl)amino)-2-oxo-3-phenyl-3,4-dihydropyrimido[4,5-d]pyrimidin-1(2H)-yl)phenyl)acrylamide] | ≥ 10000 nM | 912 nM | 634 nM | 2020 nM
4 | C=CC(=O)Nc1cccc(N2C(=O)N(Cc3ccccc3)Cc3cnc(Nc4cccc5c4CCN5C)nc32)c1 [Compound 79, N-(3-(3-benzyl-7-((1-methylindolin-4-yl)amino)-2-oxo-3,4-dihydropyrimido[4,5-d]pyrimidin-1(2H)-yl)phenyl)acrylamide] | ≥ 10000 nM | 89 nM | 107 nM | 338 nM

Next, values leading:

Row | IC50 (A431 cells) | GI50 [1] | GI50 [2] | GI50 [3] | Structure (SMILES)
5 | ≥ 10000 nM | 343 nM | 806 nM | 296 nM | CN(C)C/C=C/C(=O)Nc1cccc(N2C(=O)N(Cc3ccccc3)Cc3cnc(Nc4cccc5c4CCN5C)nc32)c1 [Compound 80, (E)-N-(3-(3-benzyl-7-((1-methylindolin-4-yl)amino)-2-oxo-3,4-dihydropyrimido[4,5-d]pyrimidin-1(2H)-yl)phenyl)-4-(dimethylamino)but-2-enamide]
6 | ≥ 10000 nM | 42 nM | 72 nM | 38 nM | Cn1cc(Nc2ncc3c(n2)N(c2cccc(NC(=O)/C=C/CN4CCCCC4)c2)C(=O)N(Cc2ccccc2)C3)c(Cl)n1 [Compound 70, (E)-N-(3-(3-benzyl-7-((3-chloro-1-methyl-1H-pyrazol-4-yl)amino)-2-oxo-3,4-dihydropyrimido[4,5-d]pyrimidin-1(2H)-yl)phenyl)-4-(piperidin-1-yl)but-2-enamide]
7 | ≥ 10000 nM | 22 nM | 21 nM | 137 nM | C=CC(=O)Nc1cccc(N2C(=O)N(Cc3ccccc3)Cc3cnc(Nc4cn(C)nc4F)nc32)c1 [Compound 71, N-(3-(3-benzyl-7-((3-fluoro-1-methyl-1H-pyrazol-4-yl)amino)-2-oxo-3,4-dihydropyrimido[4,5-d]pyrimidin-1(2H)-yl)phenyl)acrylamide]
8 | 1280 nM | 94 nM | 123 nM | 38 nM | CN(C)C/C=C/C(=O)Nc1ccc(F)c(N2C(=O)N(Cc3ccccc3)Cc3cnc(Nc4cn(C)nc4Cl)nc32)c1 [Compound 85, (E)-N-(3-(3-benzyl-7-((3-chloro-1-methyl-1H-pyrazol-4-yl)amino)-2-oxo-3,4-dihydropyrimido[4,5-d]pyrimidin-1(2H)-yl)-4-fluorophenyl)-4-(dimethylamino)but-2-enamide]
9 | 3510 nM | 373 nM | 765 nM | 1130 nM | C=CC(=O)Nc1ccc(N2C(=O)N(c3ccccc3)Cc3cnc(Nc4cn(C)nc4Cl)nc32)cc1 [Compound 131, N-(4-(7-((3-chloro-1-methyl-1H-pyrazol-4-yl)amino)-2-oxo-3-phenyl-3,4-dihydropyrimido[4,5-d]pyrimidin-1(2H)-yl)phenyl)acrylamide]
